Several values for one entry are separate records, joined by “and”; a condition that tells them apart may be missing. Identical values can stand only once. Toxic doses and inconclusive results are not listed. Cut-off read from the data, not from the text of the source: active = T/C of 150% or more; inactive = T/C below 125%.
Test system: L1210 leukemia ip in BDF1 mice, survival T/C
Assay: NCI In Vivo Anticancer Drug Screen. Data for tumor model L1210 Leukemia (intraperitoneal) in B6D2F1 (BDF1) mice
Settings: endpoint: mean survival time, higher = longer survival
In short: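 Transplantable tumor model; survival measured in treated vs vehicle control mice. Value = treated/control.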

[1] = dose: 100.0 mg/kg/injection, schedule: Q04DX003 (ip), vehicle: saline with Tween-80
[2] = dose: 200.0 mg/kg/injection, schedule: Q04DX003 (ip), vehicle: saline with Tween-80
[3] = dose: 100.0 mg/kg/injection, schedule: Q01DX009 (ip), vehicle: Klucel (hydroxypropylcellulose) (HPC)
[4] = dose: 200.0 mg/kg/injection, schedule: Q01DX009 (ip), vehicle: Klucel (hydroxypropylcellulose) (HPC)
[5] = dose: 400.0 mg/kg/injection, schedule: Q04DX003 (ip), vehicle: saline with Tween-80
[6] = dose: 100.0 mg/kg/injection, schedule: Q01DX001 (ip), vehicle: saline
[7] = dose: 200.0 mg/kg/injection, schedule: Q01DX001 (ip), vehicle: saline
[8] = dose: 400.0 mg/kg/injection, schedule: Q01DX001 (ip), vehicle: saline
[9] = dose: 100.0 mg/kg/injection, schedule: Q01DX001 (ip), vehicle: carboxymethylcellulose (CMC)
[10] = dose: 200.0 mg/kg/injection, schedule: Q01DX001 (ip), vehicle: carboxymethylcellulose (CMC)
[11] = dose: 400.0 mg/kg/injection, schedule: Q01DX001 (ip), vehicle: carboxymethylcellulose (CMC)
[12] = dose: 100.0 mg/kg/injection, schedule: Q04DX003 (ip), vehicle: Klucel (hydroxypropylcellulose) (HPC)
[13] = dose: 200.0 mg/kg/injection, schedule: Q04DX003 (ip), vehicle: Klucel (hydroxypropylcellulose) (HPC)
[14] = dose: 400.0 mg/kg/injection, schedule: Q01DX009 (ip), vehicle: Klucel (hydroxypropylcellulose) (HPC)
[15] = dose: 400.0 mg/kg/injection, schedule: Q04DX003 (ip), vehicle: Klucel (hydroxypropylcellulose) (HPC)

Measured: T/C

CC(C)=CCNc1nc(=O)[nH]c2nc[nH]c12
inactive: dose: 75.0 mg/kg/injection, schedule: Q01DX001 (ip), vehicle: saline 92 % of control | dose: 150.0 mg/kg/injection, schedule: Q01DX001 (ip), vehicle: saline 88 % of control | dose: 300.0 mg/kg/injection, schedule: Q01DX001 (ip), vehicle: saline 88 % of control

COC(=O)/C=C(\C)C(C)=Nc1ccccc1
inactive: [1] 106 % of control | [2] 106 % of control

CC1=CC2C(C3C=CC2(C)C(=O)C3(C)Cc2ccccc2)C(C)(Cc2ccccc2)C1=O (stereo not drawn)
inactive: dose: 50.0 mg/kg/injection, schedule: Q01DX009 (ip), vehicle: Klucel (hydroxypropylcellulose) (HPC) 94 % of control | dose: 75.0 mg/kg/injection, schedule: Q01DX001 (ip), vehicle: Klucel (hydroxypropylcellulose) (HPC) 100 % of control | [3] 96 % of control | dose: 150.0 mg/kg/injection, schedule: Q01DX001 (ip), vehicle: Klucel (hydroxypropylcellulose) (HPC) 99 % of control | [4] 93 % of control | dose: 300.0 mg/kg/injection, schedule: Q01DX001 (ip), vehicle: Klucel (hydroxypropylcellulose) (HPC) 96 % of control

CCOc1ccc2ccccc2c1OP(=O)(OCC)OCC
inactive: dose: 100.0 mg/kg/injection, schedule: Q04DX002 (ip), vehicle: other 103 % of control | dose: 200.0 mg/kg/injection, schedule: Q04DX002 (ip), vehicle: other 113 % of control | dose: 400.0 mg/kg/injection, schedule: Q04DX002 (ip), vehicle: other 106 % of control

C=CCNC(=S)N/N=C\c1cc(OC)c(OC)c(OC)c1
inactive: [1] 96 % of control | [2] 94 % of control | [5] 98 % of control

N=C(N)Sc1cnc2ccccc2n1
inactive: [6] 95 % of control | [7] 97 % of control | [8] 105 % of control

COc1ccc(NC(=O)Oc2ccc(Cl)cc2Cl)c(OC)c1
inactive: [3] 114 % of control | [4] 101 % of control

CC(C)(C)C(=O)Nc1ccc(S(=O)(=O)c2ccc(NC(=O)C(C)(C)C)cc2)cc1
inactive: dose: 50.0 mg/kg/injection, schedule: Q01DX001 (ip), vehicle: saline 95 % of control | [6] 93 % of control | [7] 93 % of control | [8] 98 % of control

O=C(O/C(=N\N1N=NC(c2ccccc2)C1c1ccccc1)c1ccccc1)c1ccccc1 (stereo not drawn)
inactive: [9] 87 % of control | [10] 89 % of control | [11] 89 % of control

Cc1cc(=O)cc(S)[nH]1
inactive: [9] 94 % of control | [10] 100 % of control | [11] 91 % of control

COc1cc(C=Nc2ccc(C(=O)O)cc2)ccc1N(CCCl)CCCl
inactive: dose: 6.0 mg/kg/injection, schedule: Q01DX001 (ip), vehicle: carboxymethylcellulose (CMC) 107 % of control | dose: 12.0 mg/kg/injection, schedule: Q01DX015 (ip), vehicle: carboxymethylcellulose (CMC) 109 % of control | dose: 12.5 mg/kg/injection, schedule: Q01DX001 (ip), vehicle: carboxymethylcellulose (CMC) 112 % of control

COc1ccc(CCC(C)=O)cc1
inactive: [3] 96 % of control | [12] 89 % of control | [4] 105 % of control | [13] 102 % of control | [14] 96 % of control | [15] 98 % of control

CCCCCCCCC(=O)N(CCC)CCC
inactive: dose: 100.0 mg/kg/injection, schedule: Q01DX009 (ip), vehicle: carboxymethylcellulose (CMC) 94 % of control and 97 % of control | dose: 100.0 mg/kg/injection, schedule: Q04DX002 (ip), vehicle: carboxymethylcellulose (CMC) 96 % of control | dose: 200.0 mg/kg/injection, schedule: Q01DX009 (ip), vehicle: carboxymethylcellulose (CMC) 93 % of control and 96 % of control | dose: 200.0 mg/kg/injection, schedule: Q04DX002 (ip), vehicle: carboxymethylcellulose (CMC) 96 % of control | dose: 400.0 mg/kg/injection, schedule: Q01DX009 (ip), vehicle: carboxymethylcellulose (CMC) 94 % of control and 90 % of control | dose: 400.0 mg/kg/injection, schedule: Q04DX002 (ip), vehicle: carboxymethylcellulose (CMC) 96 % of control

O=C(N/N=C/c1ccc2c(c1)CCC2)c1cccs1
inactive: [12] 97 % of control | [13] 103 % of control | [15] 107 % of control

OCC1=C(CO)C2(Cl)C(Cl)=C(Cl)C1(Cl)C2(Cl)Cl
inactive: [3] 100 % of control | dose: 100.0 mg/kg/injection, schedule: Q04DX003 (ip), vehicle: saline 105 % of control | [4] 105 % of control | dose: 200.0 mg/kg/injection, schedule: Q04DX003 (ip), vehicle: saline 100 % of control | [14] 88 % of control | dose: 400.0 mg/kg/injection, schedule: Q04DX003 (ip), vehicle: saline 98 % of control

CCCCC(C=NCC(CCCC)(CCN1CCOCC1)c1cccc2ccccc12)(CCN1CCOCC1)c1cccc2ccccc12 (stereo not drawn)
inactive: dose: 100.0 mg/kg/injection, schedule: Q01DX009 (ip), vehicle: saline 100 % of control | dose: 200.0 mg/kg/injection, schedule: Q01DX009 (ip), vehicle: saline 96 % of control | dose: 400.0 mg/kg/injection, schedule: Q01DX009 (ip), vehicle: saline 88 % of control

CCCCP(=[Se])(CCCC)CCCC
inactive: dose: 0.78 mg/kg/injection, schedule: Q01DX009 (ip), vehicle: Klucel (hydroxypropylcellulose) (HPC) 93 % of control | dose: 1.56 mg/kg/injection, schedule: Q01DX009 (ip), vehicle: Klucel (hydroxypropylcellulose) (HPC) 97 % of control | dose: 3.12 mg/kg/injection, schedule: Q01DX009 (ip), vehicle: Klucel (hydroxypropylcellulose) (HPC) 112 % of control | dose: 6.25 mg/kg/injection, schedule: Q01DX009 (ip), vehicle: Klucel (hydroxypropylcellulose) (HPC) 104 % of control

CCCCCCCCCCCCN1CCCN(CCCCCCCCCCCC)CC1
inactive: dose: 100.0 mg/kg/injection, schedule: Q01DX001 (ip), vehicle: saline with Tween-80 100 % of control | dose: 100.0 mg/kg/injection, schedule: Q04DX002 (ip), vehicle: saline with Tween-80 97 % of control and 106 % of control | [1] 94 % of control and 90 % of control | dose: 200.0 mg/kg/injection, schedule: Q01DX001 (ip), vehicle: saline with Tween-80 98 % of control | dose: 200.0 mg/kg/injection, schedule: Q04DX002 (ip), vehicle: saline with Tween-80 97 % of control and 106 % of control | [2] 103 % of control and 87 % of control | dose: 400.0 mg/kg/injection, schedule: Q01DX001 (ip), vehicle: saline with Tween-80 107 % of control | dose: 400.0 mg/kg/injection, schedule: Q04DX002 (ip), vehicle: saline with Tween-80 101 % of control and 92 % of control | [5] 90 % of control

CCc1nc(=O)c2ccccc2n1C
inactive: dose: 1.5 mg/kg/injection, schedule: Q01DX001 (ip), vehicle: saline 100 % of control | dose: 3.0 mg/kg/injection, schedule: Q01DX001 (ip), vehicle: saline 95 % of control | dose: 6.0 mg/kg/injection, schedule: Q01DX001 (ip), vehicle: saline 107 % of control

O=C(O)c1ccccc1CN1CCCC(C(=O)O)C1 (stereo not drawn)
inactive: dose: 6.25 mg/kg/injection, schedule: Q01DX009 (ip), vehicle: saline with Tween-80 101 % of control | dose: 12.5 mg/kg/injection, schedule: Q01DX009 (ip), vehicle: saline with Tween-80 97 % of control | dose: 25.0 mg/kg/injection, schedule: Q01DX009 (ip), vehicle: saline with Tween-80 92 % of control

O=C(OCCCl)C1C2CCC(O2)C1C(=O)OCCCl (stereo not drawn)
inactive: dose: 1.56 mg/kg/injection, schedule: Q04DX002 (ip), vehicle: Klucel (hydroxypropylcellulose) (HPC) 103 % of control

CC(=O)OCCOc1ccc(Cl)cc1
inactive: dose: 100.0 mg/kg/injection, schedule: Q04DX002 (ip), vehicle: saline 107 % of control | dose: 200.0 mg/kg/injection, schedule: Q04DX002 (ip), vehicle: saline 96 % of control | dose: 400.0 mg/kg/injection, schedule: Q04DX002 (ip), vehicle: saline 107 % of control

Cc1cccc(CN(CC(=O)O)S(C)(=O)=O)c1
inactive: dose: 100.0 mg/kg/injection, schedule: Q01DX009 (ip), vehicle: other 102 % of control | dose: 100.0 mg/kg/injection, schedule: Q04DX003 (ip), vehicle: other 100 % of control | dose: 200.0 mg/kg/injection, schedule: Q01DX009 (ip), vehicle: other 100 % of control | dose: 200.0 mg/kg/injection, schedule: Q04DX003 (ip), vehicle: other 98 % of control | dose: 400.0 mg/kg/injection, schedule: Q01DX009 (ip), vehicle: other 100 % of control | dose: 400.0 mg/kg/injection, schedule: Q04DX003 (ip), vehicle: other 93 % of control

Reference: PubChem BioAssay AID248 (DTP/NCI, 2004)
